Measured values from ChEMBL document CHEMBL5500404, “Discovery and Development of NLRP3 Inhibitors Targeting the LRR Domain to Disrupt NLRP3-NEK7 Interaction for the Treatment of Rheumatoid Arthritis” (J Med Chem, 2024).
Calls of active or inactive are those of the source. The calls are words filed in the database; no cut-off is given here.

Experiments:
[1] = target: T1, NACHT, LRR and PYD domains-containing protein 1 (Homo sapiens) (UniProt Q9C000); assay: Inhibition of NLRP1 inflammasome in Val-boroPro-induced human THP-M cells assessed as inhibition of IL-1beta level at 20 to 60 uM pretreated for 24 hrs followed by stimulated with LPS by ELISA; type: cell-based; conditions: dose 20-60 µM
T1 sequence (whole entry): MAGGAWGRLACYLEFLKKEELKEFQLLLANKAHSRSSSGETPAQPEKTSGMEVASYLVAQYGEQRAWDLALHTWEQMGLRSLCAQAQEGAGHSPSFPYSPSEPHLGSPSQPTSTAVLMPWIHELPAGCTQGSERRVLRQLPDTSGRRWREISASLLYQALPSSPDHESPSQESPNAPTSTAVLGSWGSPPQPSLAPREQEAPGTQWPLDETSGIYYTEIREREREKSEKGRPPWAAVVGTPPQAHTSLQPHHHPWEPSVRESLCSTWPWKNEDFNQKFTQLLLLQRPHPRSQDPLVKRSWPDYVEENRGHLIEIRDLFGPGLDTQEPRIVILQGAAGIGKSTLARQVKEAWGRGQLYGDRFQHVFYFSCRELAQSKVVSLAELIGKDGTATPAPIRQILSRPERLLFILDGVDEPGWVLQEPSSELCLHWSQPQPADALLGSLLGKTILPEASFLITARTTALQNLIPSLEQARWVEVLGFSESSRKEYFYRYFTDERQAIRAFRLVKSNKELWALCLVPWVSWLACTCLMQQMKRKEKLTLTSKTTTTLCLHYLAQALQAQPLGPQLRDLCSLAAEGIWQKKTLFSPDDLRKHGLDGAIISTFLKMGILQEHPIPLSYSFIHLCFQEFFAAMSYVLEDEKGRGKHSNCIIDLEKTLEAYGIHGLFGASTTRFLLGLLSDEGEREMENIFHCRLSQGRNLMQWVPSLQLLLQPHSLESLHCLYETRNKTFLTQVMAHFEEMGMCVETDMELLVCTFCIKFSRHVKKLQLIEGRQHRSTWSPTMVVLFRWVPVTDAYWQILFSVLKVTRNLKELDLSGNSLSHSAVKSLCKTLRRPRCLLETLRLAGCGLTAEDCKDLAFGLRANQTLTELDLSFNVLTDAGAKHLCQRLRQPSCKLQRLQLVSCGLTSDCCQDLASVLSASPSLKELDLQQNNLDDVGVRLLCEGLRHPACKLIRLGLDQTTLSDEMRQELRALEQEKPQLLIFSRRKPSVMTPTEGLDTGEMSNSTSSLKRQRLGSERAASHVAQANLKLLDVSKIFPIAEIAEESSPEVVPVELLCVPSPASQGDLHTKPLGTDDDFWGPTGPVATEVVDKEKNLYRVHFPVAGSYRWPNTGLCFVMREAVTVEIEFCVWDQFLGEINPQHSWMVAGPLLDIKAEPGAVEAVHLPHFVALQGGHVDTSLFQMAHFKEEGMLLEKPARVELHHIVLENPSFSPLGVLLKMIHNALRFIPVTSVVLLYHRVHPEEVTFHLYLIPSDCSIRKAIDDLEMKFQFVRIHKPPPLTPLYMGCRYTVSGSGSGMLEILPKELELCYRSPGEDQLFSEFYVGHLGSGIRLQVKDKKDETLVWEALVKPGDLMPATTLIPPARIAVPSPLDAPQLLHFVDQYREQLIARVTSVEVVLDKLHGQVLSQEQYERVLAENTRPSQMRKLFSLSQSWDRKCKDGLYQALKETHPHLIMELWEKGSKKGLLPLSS

THP-M [2] = assay: Induction of mitochondrial membrane potential loss in human THP-M cells pretreated for 24 hrs followed by stimulated with LPS for 3 hrs and ATP for 1 hr by Mitochondrial damage experiment; type: functional, cell-based; conditions: time 28.0 hrs
THP-M [3] = assay: Reduction of reactive oxygen species production in human THP-M cells pretreated for 24 hrs followed by stimulated with LPS for 3 hrs and ATP for 1 hr by Mitochondrial damage experiment; type: functional, cell-based; conditions: time 28.0 hrs
Rattus norvegicus [4] = assay: (§1) Anti-inflammatory activity against complete Freund's adjuvant (CFA)-induced arthritis rat model assessed as decrease in thymus index at 20 to 80 mg/kg, ip treated after 17 days of CFA challenge measured after 18 days (day 17 to 34) relative to model group; type: functional, organism-based; conditions: dose 20-80 mg/kg, time 18.0 day
Rattus norvegicus [5] = assay: Anti-inflammatory activity against complete Freund's adjuvant (CFA)-induced arthritis rat model assessed as decrease in thymus size at 20 to 80 mg/kg, ip treated after 17 days of CFA challenge measured after 18 days (day 17 to 34) relative to model group; type: functional, organism-based; conditions: dose 20-80 mg/kg, time 18.0 day
Rattus norvegicus [6] = assay: as §1, with “reduction” for “decrease”, “IL-1beta in rat synovium from the left rear ankle” for “thymus index”, “34) by immunohistochemistry based assay” for “34)”; type: functional, organism-based; conditions: dose 20-80 mg/kg, time 18.0 day
Rattus norvegicus [7] = assay: as §1, with “reduction” for “decrease”, “IL-1beta in rat synovium from the left rear ankle” for “thymus index”, “34) by immunofluorescence based assay” for “34)”; type: functional, organism-based; conditions: dose 20-80 mg/kg, time 18.0 day
[8] = Half life in Sprague-Dawley rat at 20 mg/kg, IG measured upto 1440 mins by LC-MS/MS analysis; type: ADME, organism-based; conditions: in vivo, po
[9] = Cmax in Sprague-Dawley rat at 20 mg/kg, IG measured upto 1440 mins by LC-MS/MS analysis; type: ADME, organism-based; conditions: in vivo, po
[10] = Apparent volume of distribution during terminal phase in Sprague-Dawley rat at 20 mg/kg, ip measured upto 720 mins by LC-MS/MS analysis; type: ADME, organism-based; conditions: in vivo, read-out: Vz/F

With `COCCCNC(=O)c1ccc(Cn2c(SCC3CCCCC3)nc3ccncc32)cc1` the inhibition [1] was “inactive”, the Activity (THP-M [2]) was “inactive” and the Activity (THP-M [3]) was “inactive”. For the same molecule, the Activity (Rattus norvegicus [4]) was “Active”, the Activity (Rattus norvegicus [5]) was “Active” and the Activity (Rattus norvegicus [6]) was “Active”. For the same molecule, the Activity (Rattus norvegicus [7]) was “Active”, the half-life [8] was 2.14 h and the Cmax [9] was 448 ng/mL. It also gave a Vd/F [10] of 2.8 L/kg.
